Converted amounts (≈) assume the structure as drawn.
Experiments:
[1] = system: Mycobacterium tuberculosis; assay: Antimycobacterial activity against Mycobacterium tuberculosis H37Rv measured after 1 week by resazurin assay; assay type: functional; settings: 168 h
[2] = Selectivity index, ratio of CC50 for African green monkey Vero cells to MIC for Mycobacterium tuberculosis H37Rv; assay type: toxicity; settings: read-out: Selectivity Index
[3] = Half life in mouse liver microsomes; assay type: ADME, microsome
[4] = Cytotoxicity against African green monkey Vero cells assessed as reduction in cell viability after 72 hrs by MTS/PMS assay; assay type: cell-based; settings: chlorocebus sabaeus
[5] = Intrinsic clearance in mouse liver microsomes; assay type: ADME, microsome; settings: read-out: CLH

| SMILES | MIC [1] [µg/mL] | selectivity ratio [2] | half-life [3] [min] | CC50 at 72 h [4] [µg/mL] | microsomal CLint [5] [µL/min/mg] |
| --- | --- | --- | --- | --- | --- |
| NNC(=O)c1ccncc1 [ISONIAZID] | 0.039 (≈ 0.284 µM) | – | – | – | – |
| CC(C)(C)C1CCc2c(sc3nc(SCc4cccc([N+](=O)[O-])c4)nc(N)c23)C1 (configuration not stated) | 10 (≈ 23.3 µM) | > 20 | 47.5 | > 200 | 14.6 |
| CC(C)(C)C1CCc2c(sc3nc(SCc4ccc(C(=O)O)cc4[N+](=O)[O-])nc(N)c23)C1 (configuration not stated) | 12.5 to 25 (≈ 26.4 to 52.9 µM) | – | 120 | > 50 | 5.8 |
| CC(C)(C)C1CCc2c(sc3nc(SCc4ccc([N+](=O)[O-])cc4)nc(N)c23)C1 (configuration not stated) | > 200 | – | 34.3 | > 50 | 20.1 |
| Cc1cc(CSc2nc(N)c3c4c(sc3n2)CC(C(C)(C)C)CC4)no1 (configuration not stated) | – | – | 19 | – | – |
| CC(C)(C)C1CCc2c(sc3nc(SCc4ccc5c(c4)OCO5)nc(N)c23)C1 (configuration not stated) | > 200 | – | 64.2 | > 50 | 10.8 |
| Cc1ccc(CSc2nc(N)c3c4c(sc3n2)CC(C(C)(C)C)CC4)o1 (configuration not stated) | 200 (≈ 516 µM) | – | 19.7 | 3.1 (≈ 8 µM) | 35.1 |
| Cc1nc(CSc2nc(N)c3c4c(sc3n2)CC(C(C)(C)C)CC4)sc1C (configuration not stated) | 100 to 200 (≈ 239 to 478 µM) | – | 21.7 | 1.6 (≈ 3.82 µM) | 31.9 |
| Cc1cccc(CSc2nc(N)c3c4c(sc3n2)CC(C(C)(C)C)CC4)n1 (configuration not stated) | > 200 | – | 17 | 25 (≈ 62.7 µM) | 40.8 |
| COc1ccc([N+](=O)[O-])cc1CSc1nc(N)c2c3c(sc2n1)CC(C(C)(C)C)CC3 (configuration not stated) | > 200 | – | 87.7 | 12.5 (≈ 27.3 µM) | 7.9 |
| CCOC(=O)CSc1nc(N)c2c3c(sc2n1)CC(C(C)(C)C)CC3 (configuration not stated) | 0.19 to 0.38 (≈ 0.501 to 1 µM) | 120 to 240 | < 1 | 45 (≈ 119 µM) | > 1390 |
| Cc1ccc(CSc2nc(N)c3c4c(sc3n2)CC(C(C)(C)C)CC4)s1 (configuration not stated) | > 200 | – | 31.8 | 12.5 (≈ 31 µM) | 21.8 |
| Cn1nccc1CSc1nc(N)c2c3c(sc2n1)CC(C(C)(C)C)CC3 (configuration not stated) | 10 (≈ 25.8 µM) | 10 | 60.8 | 100 (≈ 258 µM) | 11.4 |
| CC(C)(C)C1CCc2c(sc3nc(SCc4ccc(C(=O)O)cc4)nc(N)c23)C1 (configuration not stated) | 25 to 50 (≈ 58.5 to 117 µM) | – | 95 | 50 (≈ 117 µM) | 7.3 |
| CC(C)(C)C1CCc2c(sc3nc(SCc4nccs4)nc(N)c23)C1 (configuration not stated) | – | – | 66.6 | – | – |
| CC(C)(C)C1CCc2c(sc3nc(SCc4cc([N+](=O)[O-])ccc4O)nc(N)c23)C1 (configuration not stated) | 200 (≈ 450 µM) | – | 58.2 | 50 (≈ 112 µM) | 11.9 |
| CC(C)(C)C1CCc2c(sc3nc(SCc4ccnn4C4CCCCO4)nc(N)c23)C1 (configuration not stated) | 25 (≈ 54.6 µM) | – | 60.3 | 6.2 (≈ 13.5 µM) | 11.5 |
